Experimental data reported in publication PMC7138817, “The [4Fe-4S] cluster of sulfurtransferase TtuA desulfurizes TtuB during tRNA modification in Thermus thermophilus” (Communications Biology, 2020).
The star is where a group is joined. thiocarboxylate = C-terminal -COSH in place of -COOH, S*

Key:
[1] = target: T1, holo-TthTtuA–TthTtuB complex (Thermus thermophilus, UniProt Q72LF3+Q72LF4); test: X-ray crystal structure, […] Å; type: binding; conditions: reconstituted with ferric chloride and sulfide, anaerobic; bound by three Cys of TtuA, unique Fe coordinated by C-terminal carboxylate of TtuB
T1 construct: gene ttuA; co-expressed in E. coli B834(DE3) from pETDuet-1; His6-tag plus four residues at N-terminus of TtuB, TtuA untagged; TtuB-COOH form; TtuA-TtuB heterodimers

holo-TtuA = target: T2, holo-TtuA (Thermus thermophilus, UniProt Q72LF3); test: EPR spectroscopy, X-band, […] K; type: binding; conditions: dithionite-reduced, anaerobic, no TtuB
T2 construct: TtuA without TtuB, prepared as in an earlier publication
T2 sequence (Q72LF3 1-321): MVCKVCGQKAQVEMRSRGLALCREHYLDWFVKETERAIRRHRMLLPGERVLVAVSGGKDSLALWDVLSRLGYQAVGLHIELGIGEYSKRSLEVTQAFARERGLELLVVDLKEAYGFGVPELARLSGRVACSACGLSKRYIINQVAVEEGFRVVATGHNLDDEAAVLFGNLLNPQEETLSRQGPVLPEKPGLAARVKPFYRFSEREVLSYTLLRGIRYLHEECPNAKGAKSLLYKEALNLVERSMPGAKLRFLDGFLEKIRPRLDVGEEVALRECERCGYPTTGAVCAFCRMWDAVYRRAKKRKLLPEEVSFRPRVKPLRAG

[2] = target: T3, holo-TtuA (purified alone, with [4Fe-4S] cluster) used for EPR with added TtuB-COSH (Thermus thermophilus, UniProt Q72LF3 1-321); test: EPR spectroscopy; purified holo-TtuA mixed with TtuB-COSH (molar ratio 1:3, 0.6 mM:2.0 mM), incubated at 298 K for 5 min, reduced with sodium dithionite, frozen; X-band spectra at 7, 12 and 29 K; compared with TtuA without TtuB-COSH; conditions: both partners purified
T3 construct: TtuA, Thermus thermophilus; carries a [4Fe-4S] cluster, reduced with sodium dithionite for EPR; also called DT-reduced TtuA; source: purified
T3 sequence (looked up): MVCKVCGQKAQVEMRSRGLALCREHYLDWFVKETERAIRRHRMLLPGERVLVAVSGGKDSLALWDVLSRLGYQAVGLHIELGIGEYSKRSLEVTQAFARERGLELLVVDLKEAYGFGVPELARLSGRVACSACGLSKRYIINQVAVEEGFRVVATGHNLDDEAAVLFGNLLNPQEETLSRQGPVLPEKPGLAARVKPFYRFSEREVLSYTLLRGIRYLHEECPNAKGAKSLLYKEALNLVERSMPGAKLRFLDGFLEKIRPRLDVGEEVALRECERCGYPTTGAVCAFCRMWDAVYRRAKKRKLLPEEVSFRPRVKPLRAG

Molecule | X-ray crystal structure, 2.2 Å [1] | EPR spectroscopy, X-band, 12 K (holo-TtuA) | binding result [2]
[S]12[Fe]3[S]4[Fe]1[S]1[Fe]2[S]3[Fe]41 [[4Fe-4S] cluster] | unique Fe site of the [4Fe-4S] cluster and the C-terminus of TtuB was observed | TtuA in the absence of TtuB-COSH is the typical rhombic signal of the [4Fe-4S] cluster | –
TtuB-COSH (TtuB with thiocarboxylated C-terminus) (natural protein, Thermus thermophilus, UniProt Q72LF4 1-65, looked up, TtuB, ubiquitin-like sulfur donor protein, Thermus thermophilus; also called thiocarboxylated TtuB) MRVVLRLPERKEVEVKGNRPLREVLEELGLNPETVVAVRGEELLTLEDEVREEDTLEVLSAISGG-thiocarboxylate | – | – | binds
